The text below walks through data of patent US10251874B2, “Crystalline forms of a JAK inhibitor compound” (THERAVANCE BIOPHARMA R&D IP, LLC, priority 2017, dated 2019).

For the data set the following is noted: for sorption/desorption profile (hygroscopicity): DMS, two cycles of sorption and desorption, 25° C.

Molecules are shown by their SMILES. Like-named read-outs stand apart in the source and are kept apart here.

Method: Dynamic moisture sorption (DMS) measurement was performed using a VTI atmospheric microbalance, SGA-100 system (VTI Corp., Hialeah, FL 33016). A weighed sample was used and the humidity was lowest possible value (close to 0% RH) at the start of the analysis. The DMS analysis consisted of an initial drying step (˜0%RH) for 120 minutes, followed by two cycles of sorption and desorption with a scan rate of 5% RH/step over the humidity range of 5% RH to 90% RH. The DMS run was performed isothermally at 25° C.

In the case of `CCc1cc(O)c(F)cc1-c1ccc2c(-c3nc4c([nH]3)CCN(C3CCN(C)CC3)C4)n[nH]c2c1.O.O=C(O)C(=O)O` [oxalate hydrate, Crystalline Oxalate Hydrate of 5-ethyl-2-fluoro-4-(3-(5-(1-methylpiperidin-4-yl)-4,5,6,7-tetrahydro-1H-imidazo[4,5-c]pyridin-2-yl)-1H-indazol-6-yl)phenol], the “sorption/desorption profile (hygroscopicity)” value is “slight propensity for hygroscopicity”. Besides, the total moisture uptake result (relative humidity between about 30% and about 90% at room temperature) is recorded as “about 1%”.
For the compound `CCc1cc(O)c(F)cc1-c1ccc2c(-c3nc4c([nH]3)CCN(C3CCN(C)CC3)C4)n[nH]c2c1.O.O=C(O)CCC(=O)O` [succinate hydrate, Crystalline Succinate Hydrate of 5-ethyl-2-fluoro-4-(3-(5-(1-methylpiperidin-4-yl)-4,5,6,7-tetrahydro-1H-imidazo[4,5-c]pyridin-2-yl)-1H-indazol-6-yl)phenol], the “sorption/desorption profile (hygroscopicity)” value is listed as “slight propensity for hygroscopicity”. Besides, under “relative humidity between about 5% and about 90% at room temperature”, the total moisture uptake entry was “about 2%”.
